Legend:
Type in all cases: functional, cell-based
[1] = tested on: KM12; assay: Antiproliferative activity against human KM12 cells assessed as reduction in cell viability after 48 hrs by SRB assay; details: KM12, 48 h
[2] = tested on: UACC-62; assay: Antiproliferative activity against human UACC62 cells assessed as reduction in cell viability after 48 hrs by SRB assay; details: UACC-62, 48 h, pooled result: one value given for 8 cell lines, strains, targets or settings
[3] = tested on: UO-31; assay: Antiproliferative activity against human UO31 cells assessed as reduction in cell viability after 48 hrs by SRB assay; details: UO-31, 48 h
[4] = tested on: MDA-MB-231; assay: Antiproliferative activity against human MDA-MB-231 cells assessed as reduction in cell viability after 48 hrs by SRB assay; details: MDA-MB-231, 48 h
[5] = tested on: SNB-19; assay: Antiproliferative activity against human SNB19 cells assessed as reduction in cell viability after 48 hrs by SRB assay; details: SNB-19, 48 h
[6] = tested on: SF-539; assay: Antiproliferative activity against human SF539 cells assessed as reduction in cell viability after 48 hrs by SRB assay; details: SF-539, 48 h
[7] = tested on: U-251; assay: Antiproliferative activity against human U251 cells assessed as reduction in cell viability after 48 hrs by SRB assay; details: U-251, 48 h
[8] = tested on: K562; assay: Antiproliferative activity against human K562 cells assessed as reduction in cell viability after 48 hrs by SRB assay; details: K562, 48 h
[9] = tested on: A498; assay: Antiproliferative activity against human A498 cells assessed as reduction in cell viability after 48 hrs by SRB assay; details: A498, 48 h
[10] = tested on: SK-OV-3; assay: Antiproliferative activity against human SKOV3 cells assessed as reduction in cell viability after 48 hrs by SRB assay; details: SK-OV-3, 48 h
[11] = tested on: MDA-MB-435; assay: Antiproliferative activity against human MDA-MB-435 cells assessed as reduction in cell viability after 48 hrs by SRB assay; details: MDA-MB-435, 48 h
[12] = tested on: HT-29; assay: Antiproliferative activity against human HT-29 cells assessed as reduction in cell viability after 48 hrs by SRB assay; details: HT-29, 48 h
[13] = tested on: HCT-15; assay: Antiproliferative activity against human HCT15 cells assessed as reduction in cell viability after 48 hrs by SRB assay; details: HCT-15, 48 h
[14] = tested on: CCRF-CEM; assay: Antiproliferative activity against human CCRF-CEM cells assessed as reduction in cell viability after 48 hrs by SRB assay
[15] = tested on: SF-295; assay: Antiproliferative activity against human SF295 cells assessed as reduction in cell viability after 48 hrs by SRB assay; details: SF-295, 48 h
[16] = tested on: IGROV-1; assay: Antiproliferative activity against human IGROV1 cells assessed as reduction in cell viability after 48 hrs by SRB assay; details: IGROV-1, 48 h
[17] = tested on: SR; assay: Antiproliferative activity against human SR cells assessed as reduction in cell viability after 48 hrs by SRB assay
[18] = tested on: OVCAR-4; assay: Antiproliferative activity against human OVCAR4 cells assessed as reduction in cell viability after 48 hrs by SRB assay; details: OVCAR-4, 48 h
[19] = tested on: HCT-116; assay: Antiproliferative activity against human HCT116 cells assessed as reduction in cell viability after 48 hrs by SRB assay; details: HCT-116, 48 h
[20] = tested on: NCI/ADR-RES; assay: Antiproliferative activity against human NCI/ADR-RES cells assessed as reduction in cell viability after 48 hrs by SRB assay
[21] = tested on: OVCAR-5; assay: Antiproliferative activity against human OVCAR5 cells assessed as reduction in cell viability after 48 hrs by SRB assay; details: OVCAR-5, 48 h
[22] = tested on: NCI-H522; assay: Antiproliferative activity against human NCI-H522 cells assessed as reduction in cell viability after 48 hrs by SRB assay; details: NCI-H522, 48 h, pooled result: one value given for 8 cell lines, strains, targets or settings
[23] = tested on: T47D; assay: Antiproliferative activity against human T47D cells assessed as reduction in cell viability after 48 hrs by SRB assay
[24] = tested on: MDA-MB-468; assay: Antiproliferative activity against human MDA-MB-468 cells assessed as reduction in cell viability after 48 hrs by SRB assay; details: MDA-MB-468, 48 h
[25] = tested on: COLO 205; assay: Antiproliferative activity against human COLO205 cells assessed as reduction in cell viability after 48 hrs by SRB assay; details: COLO 205, 48 h
[26] = tested on: MOLT-4; assay: Antiproliferative activity against human MOLT4 cells assessed as reduction in cell viability after 48 hrs by SRB assay; details: MOLT-4, 48 h
[27] = tested on: DU-145; assay: Antiproliferative activity against human DU145 cells assessed as reduction in cell viability after 48 hrs by SRB assay; details: DU-145, 48 h
[28] = tested on: PC-3; assay: Antiproliferative activity against human PC3 cells assessed as reduction in cell viability after 48 hrs by SRB assay; details: PC-3, 48 h
[29] = tested on: SW-620; assay: Antiproliferative activity against human SW620 cells assessed as reduction in cell viability after 48 hrs by SRB assay; details: SW-620, 48 h
[30] = tested on: OVCAR-3; assay: Antiproliferative activity against human OVCAR3 cells assessed as reduction in cell viability after 48 hrs by SRB assay; details: OVCAR-3, 48 h
[31] = tested on: HCC 2998; assay: Antiproliferative activity against human HCC2998 cells assessed as reduction in cell viability after 48 hrs by SRB assay; details: HCC 2998, 48 h
[32] = tested on: 786-0; assay: Antiproliferative activity against human 786-0 cells assessed as reduction in cell viability after 48 hrs by SRB assay; details: 786-0, 48 h
[33] = tested on: SN12C; assay: Antiproliferative activity against human SN12C cells assessed as reduction in cell viability after 48 hrs by SRB assay
[34] = tested on: OVCAR-8; assay: Antiproliferative activity against human OVCAR8 cells assessed as reduction in cell viability after 48 hrs by SRB assay; details: OVCAR-8, 48 h
[35] = tested on: MCF7; assay: Antiproliferative activity against human MCF7 cells assessed as reduction in cell viability after 48 hrs by SRB assay; details: MCF7, 48 h
[36] = tested on: HOP-92; assay: Antiproliferative activity against human HOP92 cells assessed as reduction in cell viability after 48 hrs by SRB assay; details: HOP-92, 48 h
[37] = tested on: RXF 393; assay: Antiproliferative activity against human RXF393 cells assessed as reduction in cell viability after 48 hrs by SRB assay; details: RXF 393, 48 h
[38] = tested on: Hs-578T; assay: Antiproliferative activity against human Hs 578T cells assessed as reduction in cell viability after 48 hrs by SRB assay
[39] = tested on: SNB-75; assay: Antiproliferative activity against human SNB75 cells assessed as reduction in cell viability after 48 hrs by SRB assay; details: SNB-75, 48 h
[40] = tested on: HL-60(TB); assay: Antiproliferative activity against human HL-60(TB) cells assessed as reduction in cell viability after 48 hrs by SRB assay; details: HL-60, 48 h
[41] = tested on: ACHN; assay: Antiproliferative activity against human ACHN cells assessed as reduction in cell viability after 48 hrs by SRB assay
[42] = tested on: RPMI-8226; assay: Antiproliferative activity against human RPMI8226 cells assessed as reduction in cell viability after 48 hrs by SRB assay; details: RPMI-8226, 48 h
[43] = tested on: BT-549; assay: Antiproliferative activity against human BT549 cells assessed as reduction in cell viability after 48 hrs by SRB assay; details: BT-549, 48 h
[44] = tested on: CAKI-1; assay: Antiproliferative activity against human CAKI-1 cells assessed as reduction in cell viability after 48 hrs by SRB assay; details: CAKI-1, 48 h
[45] = tested on: TK-10; assay: Antiproliferative activity against human TK10 cells assessed as reduction in cell viability after 48 hrs by SRB assay; details: TK-10, 48 h
[46] = tested on: SF-268; assay: Antiproliferative activity against human SF268 cells assessed as reduction in cell viability after 48 hrs by SRB assay; details: SF-268, 48 h

Question: `C/C=C(\C)C(=O)O[C@H]1C=CC(=O)O[C@H]1CNC(=O)[C@H](C)O` was tested. Which IC50 [1] did it give?
Answer: 25 µM

Question: What about the IC50 [2] of the same molecule?
Answer: 28 µM

Question: What about the IC50 [3] of the same molecule?
Answer: 30 µM

Question: What about the IC50 [4] of the same molecule?
Answer: 2 to 49 µM

Question: What about the IC50 [5] of the same molecule?
Answer: 2 to 49 µM

Question: And the IC50 [6]?
Answer: 2 to 49 µM

Question: What about the IC50 [7] of the same molecule?
Answer: 2 to 49 µM

Question: And the IC50 [8]?
Answer: 2 to 49 µM

Question: What about the IC50 [9] of the same molecule?
Answer: 30 µM

Question: What about the IC50 [10] of the same molecule?
Answer: 2 to 49 µM

Question: What about the IC50 [11] of the same molecule?
Answer: 2 to 49 µM

Question: And the IC50 [12]?
Answer: 25 µM

Question: What about the IC50 [13] of the same molecule?
Answer: 25 µM

Question: And the IC50 [14]?
Answer: 2 to 49 µM

Question: And the IC50 [15]?
Answer: 2 to 49 µM

Question: And the IC50 [16]?
Answer: 2 to 49 µM

Question: And the IC50 [17]?
Answer: 2 to 49 µM

Question: What about the IC50 [18] of the same molecule?
Answer: 2 to 49 µM

Question: And the IC50 [19]?
Answer: 25 µM

Question: What about the IC50 [20] of the same molecule?
Answer: 2 to 49 µM

Question: And the IC50 [21]?
Answer: 2 to 49 µM

Question: And the IC50 [22]?
Answer: 27 µM

Question: And the IC50 [23]?
Answer: 2 to 49 µM

Question: And the IC50 [24]?
Answer: 2 to 49 µM

Question: And the IC50 [25]?
Answer: 25 µM

Question: And the IC50 [26]?
Answer: 2 to 49 µM

Question: What about the IC50 [27] of the same molecule?
Answer: 25 µM

Question: And the IC50 [28]?
Answer: 25 µM

Question: What about the IC50 [29] of the same molecule?
Answer: 25 µM

Question: What about the IC50 [30] of the same molecule?
Answer: 2 to 49 µM

Question: What about the IC50 [31] of the same molecule?
Answer: 25 µM

Question: What about the IC50 [32] of the same molecule?
Answer: 30 µM

Question: What about the IC50 [33] of the same molecule?
Answer: 30 µM

Question: What about the IC50 [34] of the same molecule?
Answer: 2 to 49 µM

Question: And the IC50 [35]?
Answer: 2 to 49 µM

Question: What about the IC50 [36] of the same molecule?
Answer: 2 to 49 µM

Question: And the IC50 [37]?
Answer: 30 µM

Question: What about the IC50 [38] of the same molecule?
Answer: 2 to 49 µM

Question: And the IC50 [39]?
Answer: 2 to 49 µM

Question: And the IC50 [40]?
Answer: 2 to 49 µM

Question: And the IC50 [41]?
Answer: 30 µM

Question: What about the IC50 [42] of the same molecule?
Answer: 2 to 49 µM

Question: And the IC50 [43]?
Answer: 2 to 49 µM

Question: And the IC50 [44]?
Answer: 30 µM

Question: What about the IC50 [45] of the same molecule?
Answer: 30 µM

Question: And the IC50 [46]?
Answer: 2 to 49 µM
